Test results published in PubChem BioAssay AID2060502 (Molecular Pharmacology Branch, DTP, NCI, 2025).

Test system: 885724-159-R-J1-PDC complex spheroid viability
Assay: Anticancer human tumor 885724-159-R-J1-PDC patient-derived pancreatic adenocarcinoma cell line growth inhibition [GQUAD]
Conditions: for IC50: curve of first compound; for viability, T/C: stronger effect = lower value
In short: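 Viability of tumor cells grown as complex spheroids with endothelial and stromal cells, exposed to drug combinations. Top concentration at or near clinical Cmax (else 10 microM), diluted in half-log increments.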

[1] = second compound 0.0316 µM, first compound 0.0316 µM
[2] = second compound 0.0316 µM, first compound 0.1 µM
[3] = second compound 0.0316 µM, first compound 0.316 µM
[4] = second compound 0.0316 µM, first compound 1 µM
[5] = second compound 0.0316 µM, first compound 3.16 µM
[6] = second compound 0.0316 µM, first compound 10 µM
[7] = second compound 0.1 µM, first compound 0.0316 µM
[8] = second compound 0.1 µM, first compound 0.1 µM
[9] = second compound 0.1 µM, first compound 0.316 µM
[10] = second compound 0.1 µM, first compound 1 µM
[11] = second compound 0.1 µM, first compound 3.16 µM
[12] = second compound 0.1 µM, first compound 10 µM
[13] = second compound 0.316 µM, first compound 0.0316 µM
[14] = second compound 0.316 µM, first compound 0.1 µM
[15] = second compound 0.316 µM, first compound 0.316 µM
[16] = second compound 0.316 µM, first compound 1 µM
[17] = second compound 0.316 µM, first compound 3.16 µM
[18] = second compound 0.316 µM, first compound 10 µM
[19] = second compound 1 µM, first compound 0.0316 µM
[20] = second compound 1 µM, first compound 0.1 µM
[21] = second compound 1 µM, first compound 0.316 µM
[22] = second compound 1 µM, first compound 1 µM
[23] = second compound 1 µM, first compound 3.16 µM
[24] = second compound 1 µM, first compound 10 µM
[25] = second compound 3.16 µM, first compound 0.0316 µM
[26] = second compound 3.16 µM, first compound 0.1 µM
[27] = second compound 3.16 µM, first compound 0.316 µM
[28] = second compound 3.16 µM, first compound 1 µM
[29] = second compound 3.16 µM, first compound 3.16 µM
[30] = second compound 3.16 µM, first compound 10 µM
[31] = second compound 10 µM, first compound 0.0316 µM
[32] = second compound 10 µM, first compound 0.1 µM
[33] = second compound 10 µM, first compound 0.316 µM
[34] = second compound 10 µM, first compound 1 µM
[35] = second compound 10 µM, first compound 3.16 µM
[36] = second compound 10 µM, first compound 10 µM
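Further: spheroids exposed to agents for seven days before readout.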
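Wherever viability, T/C is given: percent of vehicle control viability where 100% = DMSO wells.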

In the case of `COc1ncnc(C2CC2)c1-c1ncc2cnn(Cc3ccc(-c4nc(C(F)(F)F)cn4C(C)C)cc3)c2n1` + CN(C)c1ccc(Nc2c3ccc(NC(=O)CCN4CCCC4)cc3nc3cc(NC(=O)CCN4CCCC4)ccc23)cc1, the IC50 (second compound 0.0316 µM) is reported as greater than 10 µM, the IC50 (second compound 0.1 µM) is reported as greater than 10 µM and the IC50 (second compound 0.316 µM) is reported as greater than 10 µM. It also gave an IC50 (second compound 1 µM) greater than 10 µM, an IC50 (second compound 3.16 µM) greater than 10 µM and an IC50 (second compound 10 µM) greater than 10 µM. The viability, T/C [1] was 96.8%, the viability, T/C [2] was 101% and the viability, T/C [3] was 85.6%. The viability, T/C [4] was 86.9%, the viability, T/C [5] was 81.4% and the viability, T/C [6] was 105%. It also gave a viability, T/C [7] of 103%, a viability, T/C [8] of 88.2% and a viability, T/C [9] of 96.9%. The viability, T/C [10] was 98%, the viability, T/C [11] was 95% and the viability, T/C [12] was 94.5%. For the same molecule, the viability, T/C [13] was 97.6%, the viability, T/C [14] was 86.1% and the viability, T/C [15] was 82.3%. It also gave a viability, T/C [16] of 80.1%, a viability, T/C [17] of 101% and a viability, T/C [18] of 95.7%. The viability, T/C [19] was 77.5%, the viability, T/C [20] was 70.4% and the viability, T/C [21] was 81.1%. For the same molecule, the viability, T/C [22] was 67.7%, the viability, T/C [23] was 79.3% and the viability, T/C [24] was 83.1%. For the same molecule, the viability, T/C [25] was 79.2%, the viability, T/C [26] was 76.7% and the viability, T/C [27] was 68.8%. The viability, T/C [28] was 58%, the viability, T/C [29] was 77.4% and the viability, T/C [30] was 78.1%. For the same molecule, the viability, T/C [31] was 61.3%, the viability, T/C [32] was 66.5% and the viability, T/C [33] was 73.5%. It also gave a viability, T/C [34] of 70.5%, a viability, T/C [35] of 63.1% and a viability, T/C [36] of 47.8%.

Work on `Cn1ncnc1[C@H]1c2n[nH]c(=O)c3cc(F)cc(c23)N[C@@H]1c1ccc(F)cc1` + Cc1[nH]c2ccc(F)cc2c1-c1nc2c3cccnc3c3ncccc3c2[nH]1 yielded an IC50 (second compound 0.0316 µM) greater than 0.316 µM, an IC50 (second compound 0.1 µM) greater than 0.316 µM and an IC50 (second compound 0.316 µM) greater than 0.316 µM. The IC50 (second compound 1 µM) was greater than 0.316 µM, the IC50 (second compound 3.16 µM) was less than 0.000999 µM and the IC50 (second compound 10 µM) was greater than 0.316 µM. It also gave a viability, T/C (second compound 0.0316 µM, first compound 0.000999 µM) of 104%, a viability, T/C (second compound 0.0316 µM, first compound 0.00316 µM) of 95.2% and a viability, T/C (second compound 0.0316 µM, first compound 0.00999 µM) of 106%. For the same molecule, the viability, T/C [1] was 80.6%, the viability, T/C (second compound 0.0316 µM, first compound 0.0999 µM) was 91.9% and the viability, T/C [3] was 95.8%. For the same molecule, the viability, T/C (second compound 0.1 µM, first compound 0.000999 µM) was 97.5%, the viability, T/C (second compound 0.1 µM, first compound 0.00316 µM) was 90% and the viability, T/C (second compound 0.1 µM, first compound 0.00999 µM) was 85.6%. For the same molecule, the viability, T/C [7] was 93.9%, the viability, T/C (second compound 0.1 µM, first compound 0.0999 µM) was 88.3% and the viability, T/C [9] was 80.2%. It also gave a viability, T/C (second compound 0.316 µM, first compound 0.000999 µM) of 87.3%, a viability, T/C (second compound 0.316 µM, first compound 0.00316 µM) of 106% and a viability, T/C (second compound 0.316 µM, first compound 0.00999 µM) of 92%. For the same molecule, the viability, T/C [13] was 91.3%, the viability, T/C (second compound 0.316 µM, first compound 0.0999 µM) was 80.8% and the viability, T/C [15] was 82.2%. It also gave a viability, T/C (second compound 1 µM, first compound 0.000999 µM) of 78%, a viability, T/C (second compound 1 µM, first compound 0.00316 µM) of 68.4% and a viability, T/C (second compound 1 µM, first compound 0.00999 µM) of 68.8%. It also gave a viability, T/C [19] of 73.6%, a viability, T/C (second compound 1 µM, first compound 0.0999 µM) of 72% and a viability, T/C [21] of 81%. The viability, T/C (second compound 3.16 µM, first compound 0.000999 µM) was 40.1%, the viability, T/C (second compound 3.16 µM, first compound 0.00316 µM) was 36.1% and the viability, T/C (second compound 3.16 µM, first compound 0.00999 µM) was 43.8%. It also gave a viability, T/C [25] of 33.8%, a viability, T/C (second compound 3.16 µM, first compound 0.0999 µM) of 38% and a viability, T/C [27] of 42.8%. It also gave a viability, T/C (second compound 10 µM, first compound 0.000999 µM) of 63%, a viability, T/C (second compound 10 µM, first compound 0.00316 µM) of 78.6% and a viability, T/C (second compound 10 µM, first compound 0.00999 µM) of 73.6%. For the same molecule, the viability, T/C [31] was 66.8%, the viability, T/C (second compound 10 µM, first compound 0.0999 µM) was 80.6% and the viability, T/C [33] was 68.2%.

Molecule `CC(C)n1c(=O)n(C)c2cnc3cc(F)c(-c4ccc(OCCCN5CCCCC5)nc4)cc3c21` + CN(C)c1ccc(Nc2c3ccc(NC(=O)CCN4CCCC4)cc3nc3cc(NC(=O)CCN4CCCC4)ccc23)cc1 has an IC50 (second compound 0.0316 µM) greater than 10 µM, an IC50 (second compound 0.1 µM) greater than 10 µM and an IC50 (second compound 0.316 µM) greater than 10 µM. It also gave an IC50 (second compound 1 µM) greater than 10 µM, an IC50 (second compound 3.16 µM) of 7.97 µM and an IC50 (second compound 10 µM) of 1.2 µM. It also gave a viability, T/C [1] of 105%, a viability, T/C [2] of 111% and a viability, T/C [3] of 100%. The viability, T/C [4] was 91.7%, the viability, T/C [5] was 97% and the viability, T/C [6] was 56%. For the same molecule, the viability, T/C [7] was 109%, the viability, T/C [8] was 107% and the viability, T/C [9] was 112%. It also gave a viability, T/C [10] of 101%, a viability, T/C [11] of 88.2% and a viability, T/C [12] of 68.2%. It also gave a viability, T/C [13] of 107%, a viability, T/C [14] of 101% and a viability, T/C [15] of 92.2%. It also gave a viability, T/C [16] of 91.3%, a viability, T/C [17] of 85.2% and a viability, T/C [18] of 56.2%. It also gave a viability, T/C [19] of 92.6%, a viability, T/C [20] of 83.4% and a viability, T/C [21] of 101%. The viability, T/C [22] was 82.7%, the viability, T/C [23] was 74.5% and the viability, T/C [24] was 54.3%. The viability, T/C [25] was 83.7%, the viability, T/C [26] was 80.2% and the viability, T/C [27] was 86.4%. The viability, T/C [28] was 64.1%, the viability, T/C [29] was 66.6% and the viability, T/C [30] was 46%. The viability, T/C [31] was 78.7%, the viability, T/C [32] was 84.5% and the viability, T/C [33] was 60.3%. The viability, T/C [34] was 55.1%, the viability, T/C [35] was 33.3% and the viability, T/C [36] was 7.2%.
